“And” between values parts separate entries of the source, which are not always exact repeats. Identical values can stand only once.
Experiments:
GABAB1A = target: T1, GABAB1A (Homo sapiens, UniProt Q9UBS5); test: Off-target 228610; format: binding
T1 construct: purchased Eurofins Panlabs Discovery Services Taiwan, Ltd
Experimental: (§1) The potential off-target activity of 10 µM (OEG2)2-IP4 was assessed against a panel of 87 enzymes, receptors, or ion channels that are used in standard safety pharmacology screens.
(§2) 3.2. Off-target screening assay
The experiments were conducted by a contract research organization (Eurofins Panlabs Discovery
Services Taiwan, Ltd.) and details on the respective assays can be retrieved via the catalog number
provided in Supplementary Table 11 from the company’s webpage
(§3) (https://www.eurofinsdiscoveryservices.com/). […]

[1] = tested on: Protein Serine/Threonine Kinase, PKC, Non-selective; test: Off-target 178010; format: biochemical, Rat; conditions: 10 µM
Experimental: as §1, §2
(§4) The experiments were conducted by a contract research organization (Eurofins Panlabs Discovery Services Taiwan, Ltd.) and details on the respective assays can be retrieved via the catalog number provided in Supplementary Table 11 from the company’s webpage
as §3
(§5) At sacrifice the left tibia of animals of the rat model with dietary adenine/high-phosphate-induced uremia and VC was collected, fixed with 70% v/v EtOH and embedded in methyl methacrylate. The trabecular bone compartment is known to be the most metabolic active i.e. actively re-structured bone compartment in CKD. Therefore, histomorphometric and micro-computed tomography (µCT) analysis of bone was performed on the trabecular compartment. Tibial sections were Goldner-stained for histomorphometric analysis of the proximal metaphysis using the AxioVision Release 4.5 software, as […]
(§6) described previously5. […]

[2] = PK after sub-chronic s.c. treatment (7 days); format: in vivo, male Sprague-Dawley rats; conditions: for plasma concentration: unit not given
Experimental: To study PK in healthy animals, male Sprague-Dawley rats (Harlan, Correzzana, Italy) were housed up to three per cage with free access to water and standard chow (pellets 12 mm, global diet 2018 certificate, Mucedola, Srl, Settimo Milanese, Italy), and submitted to a 12-h light/dark cycle. Animals were administered i.v. 10 mg/kg of (OEG2)2-IP4 in saline solution i.v. (30 s bolus, 5 mL/kg) and s.c. (5 mL/kg), respectively, in three animals per route and treatment. […] Plasma calcium concentration was determined in pre-dose samples and in t = 30 min samples of both acute and chronic treatments using the calcium colorimetric assay. Blood samples of 100 µL were drawn at several time points from the caudal vein, centrifuged at (3000 × g, 4 °C, 10 min) and stored at −80 °C until analysis by liquid chromatography–tandem mass spectrometry (LC-MS/MS).

Endothelin ETA = target: T2, Endothelin ETA (Homo sapiens, UniProt P25101); test: Off-target 224010; format: binding
T2 construct: purchased Eurofins Panlabs Discovery Services Taiwan, Ltd
Experimental: as §1, §2, §4, §3, §5, §6

vascular calcification = test: Vitamin D3 (oral) + warfarin diet rat model of VC
Angiotensin AT1 = target: T3, Angiotensin AT1 (Homo sapiens, UniProt P30556); test: Off-target 210030; format: binding
T3 construct: purchased Eurofins Panlabs Discovery Services Taiwan, Ltd
Experimental: as §1, §2, §4, §3, §5, §6

T1 sequence (Q9UBS5 15-961 limits assumed): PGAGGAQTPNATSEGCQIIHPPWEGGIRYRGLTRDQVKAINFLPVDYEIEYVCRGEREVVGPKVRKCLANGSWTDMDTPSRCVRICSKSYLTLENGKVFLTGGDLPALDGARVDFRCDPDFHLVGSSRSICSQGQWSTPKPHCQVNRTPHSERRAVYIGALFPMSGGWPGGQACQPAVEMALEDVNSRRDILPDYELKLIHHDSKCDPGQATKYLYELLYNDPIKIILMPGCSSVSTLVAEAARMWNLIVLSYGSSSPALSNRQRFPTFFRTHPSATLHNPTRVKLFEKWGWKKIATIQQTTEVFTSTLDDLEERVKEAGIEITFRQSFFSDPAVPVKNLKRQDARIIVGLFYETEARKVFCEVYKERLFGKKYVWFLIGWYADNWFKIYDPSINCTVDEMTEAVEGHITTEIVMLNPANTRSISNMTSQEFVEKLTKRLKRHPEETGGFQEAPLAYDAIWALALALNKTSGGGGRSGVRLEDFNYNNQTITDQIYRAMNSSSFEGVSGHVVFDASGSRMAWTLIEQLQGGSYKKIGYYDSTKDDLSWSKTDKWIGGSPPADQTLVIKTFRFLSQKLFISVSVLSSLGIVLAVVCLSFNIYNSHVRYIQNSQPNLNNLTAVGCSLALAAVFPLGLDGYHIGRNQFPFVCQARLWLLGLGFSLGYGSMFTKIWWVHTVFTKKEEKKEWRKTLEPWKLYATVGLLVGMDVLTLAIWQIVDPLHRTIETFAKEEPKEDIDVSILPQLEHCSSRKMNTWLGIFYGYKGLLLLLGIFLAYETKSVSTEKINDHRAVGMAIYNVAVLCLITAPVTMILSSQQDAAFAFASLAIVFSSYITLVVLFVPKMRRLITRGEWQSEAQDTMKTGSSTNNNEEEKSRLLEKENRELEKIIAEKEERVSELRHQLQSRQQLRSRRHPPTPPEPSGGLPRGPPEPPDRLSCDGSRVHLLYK
T1 sequence (O75899 42-941 partner): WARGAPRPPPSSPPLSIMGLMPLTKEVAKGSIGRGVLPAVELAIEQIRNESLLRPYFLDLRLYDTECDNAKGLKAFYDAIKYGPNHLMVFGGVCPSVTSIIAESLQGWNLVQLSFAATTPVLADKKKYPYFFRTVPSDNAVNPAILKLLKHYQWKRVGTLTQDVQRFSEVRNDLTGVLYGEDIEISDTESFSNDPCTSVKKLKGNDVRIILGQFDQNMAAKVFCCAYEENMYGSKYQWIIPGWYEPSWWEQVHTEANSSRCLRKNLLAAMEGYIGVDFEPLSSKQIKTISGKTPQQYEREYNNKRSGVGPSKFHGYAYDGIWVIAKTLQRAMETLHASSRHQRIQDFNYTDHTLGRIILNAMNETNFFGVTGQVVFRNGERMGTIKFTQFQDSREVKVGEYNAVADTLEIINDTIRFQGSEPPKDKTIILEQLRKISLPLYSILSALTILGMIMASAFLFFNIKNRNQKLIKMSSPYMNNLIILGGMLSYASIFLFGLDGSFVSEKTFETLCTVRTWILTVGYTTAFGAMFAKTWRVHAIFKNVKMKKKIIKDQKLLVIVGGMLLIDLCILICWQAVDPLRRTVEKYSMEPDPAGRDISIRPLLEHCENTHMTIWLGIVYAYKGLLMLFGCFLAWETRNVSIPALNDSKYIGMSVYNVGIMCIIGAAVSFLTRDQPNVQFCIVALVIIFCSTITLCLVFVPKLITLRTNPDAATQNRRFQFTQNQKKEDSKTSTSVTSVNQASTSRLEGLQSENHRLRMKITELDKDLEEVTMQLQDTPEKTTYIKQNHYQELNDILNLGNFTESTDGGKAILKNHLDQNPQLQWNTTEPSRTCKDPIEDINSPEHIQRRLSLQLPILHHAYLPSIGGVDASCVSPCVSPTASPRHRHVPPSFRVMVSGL
T2 sequence (P25101 21-427): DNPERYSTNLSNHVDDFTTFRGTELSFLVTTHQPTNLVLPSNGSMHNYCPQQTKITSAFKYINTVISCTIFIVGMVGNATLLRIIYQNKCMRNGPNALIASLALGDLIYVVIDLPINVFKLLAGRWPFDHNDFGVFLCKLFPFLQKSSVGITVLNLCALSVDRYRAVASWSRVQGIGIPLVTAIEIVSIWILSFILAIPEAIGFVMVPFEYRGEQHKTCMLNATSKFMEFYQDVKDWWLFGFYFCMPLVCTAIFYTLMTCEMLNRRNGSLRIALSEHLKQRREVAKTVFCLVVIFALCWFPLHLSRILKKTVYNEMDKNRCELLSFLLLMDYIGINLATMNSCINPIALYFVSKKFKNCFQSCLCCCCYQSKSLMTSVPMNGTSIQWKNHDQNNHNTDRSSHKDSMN
T3 sequence (P30556 whole entry): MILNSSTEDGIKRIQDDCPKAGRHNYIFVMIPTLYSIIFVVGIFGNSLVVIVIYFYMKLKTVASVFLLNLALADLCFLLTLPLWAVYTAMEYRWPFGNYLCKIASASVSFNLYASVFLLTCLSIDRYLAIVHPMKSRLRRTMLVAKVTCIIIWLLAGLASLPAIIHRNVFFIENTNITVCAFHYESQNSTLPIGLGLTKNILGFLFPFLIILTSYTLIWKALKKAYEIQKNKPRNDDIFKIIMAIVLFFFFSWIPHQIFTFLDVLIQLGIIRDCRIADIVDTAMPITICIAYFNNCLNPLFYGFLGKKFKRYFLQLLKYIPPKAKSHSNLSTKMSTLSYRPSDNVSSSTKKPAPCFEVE

## COCCOCCO[C@@H]1[C@@H](OP(=O)(O)O)[C@H](OCCOCCOC)[C@@H](OP(=O)(O)O)[C@@H](OP(=O)(O)O)[C@H]1OP(=O)(O)O [(OEG2)2-IP4, 4,6-Di-O-(methoxy-diethyleneglycol)-myo-inositol-1,2,3,5-tetrakis(phosphate)]
GABAB1A
  inhibition at 10 µM: -7%
[1]
  % Inhibition: -18%
[2]; 50 mg/kg for 7 days
  accumulation following repeated s.c. administration: No significant accumulation
[2]; 50 mg/kg/day s.c. sub-chronic (7 days), time 0
  plasma concentration: 0.18 and 0.24 and 0.25 and 0.16
[2]; 50 mg/kg/day s.c. sub-chronic, time 0.5
  plasma concentration: 82.39 and 90 and 95.45 and 69.57
[2]; 50 mg/kg/day s.c. sub-chronic, time 1
  plasma concentration: 64.18 and 72.74 and 67.54 and 66.21
[2]; 50 mg/kg/day s.c. sub-chronic, time 2
  plasma concentration: 31.83 and 38.97 and 22.86 and 35.06
[2]; 50 mg/kg/day s.c. sub-chronic, time 8
  plasma concentration: 0.78 and 0.86 and 0.76 and 0.85
[2]; 50 mg/kg/day s.c. sub-chronic, time 24
  plasma concentration: 0.07 and 0.13 and 0.08
Endothelin ETA
  inhibition at 10 µM: 8%
Vascular calcification; 1x12.5, Day 0
  animals alive (Figure 5d): 12
  survival (Figure 5d): 100%
Vascular calcification; 1x12.5, Day 4.99
  animals alive (Figure 5d): 12
  survival (Figure 5d): 100%
Vascular calcification; 1x12.5, Day 5.01
  animals alive (Figure 5d): 11
  survival (Figure 5d): 92%
Vascular calcification; 1x12.5, Day 5.99
  animals alive (Figure 5d): 11
  survival (Figure 5d): 92%
Vascular calcification; 1x12.5, Day 6.01
  animals alive (Figure 5d): 9
  survival (Figure 5d): 75%
Vascular calcification; 1x12.5, Day 6.99
  animals alive (Figure 5d): 9
  survival (Figure 5d): 75%
Vascular calcification; 1x12.5, Day 7.01
  animals alive (Figure 5d): 7
  survival (Figure 5d): 58%
Vascular calcification; 1x12.5, Day 7.99
  animals alive (Figure 5d): 7
  survival (Figure 5d): 58%
Vascular calcification; 1x12.5, Day 8.01
  animals alive (Figure 5d): 7
  survival (Figure 5d): 58%
Vascular calcification; 1x12.5, Day 8.1
  animals alive (Figure 5d): 7
  survival (Figure 5d): 58%
Vascular calcification; 1x12.5 to 2x50 mg/kg/day
  calcification in the femoral artery: dose-dependently prevents calcification in the femoral artery
Vascular calcification; 1x25, Day 0
  animals alive (Figure 5d): 12
  survival (Figure 5d): 100%
Vascular calcification; 1x25, Day 4.99
  animals alive (Figure 5d): 12
  survival (Figure 5d): 100%
Vascular calcification; 1x25, Day 5.01
  animals alive (Figure 5d): 12
  survival (Figure 5d): 100%
Vascular calcification; 1x25, Day 5.99
  animals alive (Figure 5d): 12
  survival (Figure 5d): 100%
Vascular calcification; 1x25, Day 6.01
  animals alive (Figure 5d): 10
  survival (Figure 5d): 83%
Vascular calcification; 1x25, Day 6.99
  animals alive (Figure 5d): 10
  survival (Figure 5d): 83%
Vascular calcification; 1x25, Day 7.01
  animals alive (Figure 5d): 8
  survival (Figure 5d): 67%
Vascular calcification; 1x25, Day 7.99
  animals alive (Figure 5d): 8
  survival (Figure 5d): 67%
Vascular calcification; 1x25, Day 8.01
  animals alive (Figure 5d): 8
  survival (Figure 5d): 67%
Vascular calcification; 1x25, Day 8.1
  animals alive (Figure 5d): 8
  survival (Figure 5d): 67%
Vascular calcification; 1x50, Day 0
  animals alive (Figure 5d): 19
  survival (Figure 5d): 100%
Vascular calcification; 1x50, Day 4.99
  animals alive (Figure 5d): 19
  survival (Figure 5d): 100%
Vascular calcification; 1x50, Day 5.01
  animals alive (Figure 5d): 19
  survival (Figure 5d): 100%
Vascular calcification; 1x50, Day 5.99
  animals alive (Figure 5d): 19
  survival (Figure 5d): 100%
Vascular calcification; 1x50, Day 6.01
  animals alive (Figure 5d): 19
  survival (Figure 5d): 100%
Vascular calcification; 1x50, Day 6.99
  animals alive (Figure 5d): 19
  survival (Figure 5d): 100%
Vascular calcification; 1x50, Day 7.01
  animals alive (Figure 5d): 17
  survival (Figure 5d): 89%
Vascular calcification; 1x50, Day 7.99
  animals alive (Figure 5d): 17
  survival (Figure 5d): 89%
Vascular calcification; 1x50, Day 8.01
  animals alive (Figure 5d): 15
  survival (Figure 5d): 79%
Vascular calcification; 1x50, Day 8.1
  animals alive (Figure 5d): 15
  survival (Figure 5d): 79%
Vascular calcification; 2 x 25 mg/kg s.c.
  survival: 100%
Vascular calcification; 2x25, Day 0
  animals alive (Figure 5d): 18
  survival (Figure 5d): 100%
Vascular calcification; 2x25, Day 4.99
  animals alive (Figure 5d): 18
  survival (Figure 5d): 100%
Vascular calcification; 2x25, Day 5.01
  animals alive (Figure 5d): 18
  survival (Figure 5d): 100%
Vascular calcification; 2x25, Day 5.99
  animals alive (Figure 5d): 18
  survival (Figure 5d): 100%
Vascular calcification; 2x25, Day 6.01
  animals alive (Figure 5d): 18
  survival (Figure 5d): 100%
Vascular calcification; 2x25, Day 6.99
  animals alive (Figure 5d): 18
  survival (Figure 5d): 100%
Vascular calcification; 2x25, Day 7.01
  animals alive (Figure 5d): 18
  survival (Figure 5d): 100%
Vascular calcification; 2x25, Day 7.99
  animals alive (Figure 5d): 18
  survival (Figure 5d): 100%
Vascular calcification; 2x25, Day 8.01
  animals alive (Figure 5d): 18
  survival (Figure 5d): 100%
Vascular calcification; 2x25, Day 8.1
  animals alive (Figure 5d): 18
  survival (Figure 5d): 100%
Vascular calcification; 2x50, Day 0
  animals alive (Figure 5d): 19
  survival (Figure 5d): 100%
Vascular calcification; 2x50, Day 4.99
  animals alive (Figure 5d): 19
  survival (Figure 5d): 100%
Vascular calcification; 2x50, Day 5.01
  animals alive (Figure 5d): 19
  survival (Figure 5d): 100%
Vascular calcification; 2x50, Day 5.99
  animals alive (Figure 5d): 19
  survival (Figure 5d): 100%
Vascular calcification; 2x50, Day 6.01
  animals alive (Figure 5d): 19
  survival (Figure 5d): 100%
Vascular calcification; 2x50, Day 6.99
  animals alive (Figure 5d): 19
  survival (Figure 5d): 100%
Vascular calcification; 2x50, Day 7.01
  animals alive (Figure 5d): 17
  survival (Figure 5d): 89%
Vascular calcification; 2x50, Day 7.99
  animals alive (Figure 5d): 17
  survival (Figure 5d): 89%
Vascular calcification; 2x50, Day 8.01
  animals alive (Figure 5d): 16
  survival (Figure 5d): 84%
Vascular calcification; 2x50, Day 8.1
  animals alive (Figure 5d): 16
  survival (Figure 5d): 84%
Vascular calcification; 2 × 25 mg/kg/day
  bulk calcium in carotid artery and femoral artery: significant reduction in bulk calcium
Vascular calcification; 2 × 25 mg/kg/day s.c. (0/18)
  Mortality rate: 0%
Angiotensin AT1
  inhibition at 10 µM: 0%

From PMC7002685, “Inhibition of vascular calcification by inositol phosphates derivatized with ethylene glycol oligomers” (Nature Communications, 2020)
